The target in one assay is T1, human Fatty Acid Synthase (Homo sapiens, UniProt P49327).
T1 construct: made in house
T1 sequence (P49327 whole entry): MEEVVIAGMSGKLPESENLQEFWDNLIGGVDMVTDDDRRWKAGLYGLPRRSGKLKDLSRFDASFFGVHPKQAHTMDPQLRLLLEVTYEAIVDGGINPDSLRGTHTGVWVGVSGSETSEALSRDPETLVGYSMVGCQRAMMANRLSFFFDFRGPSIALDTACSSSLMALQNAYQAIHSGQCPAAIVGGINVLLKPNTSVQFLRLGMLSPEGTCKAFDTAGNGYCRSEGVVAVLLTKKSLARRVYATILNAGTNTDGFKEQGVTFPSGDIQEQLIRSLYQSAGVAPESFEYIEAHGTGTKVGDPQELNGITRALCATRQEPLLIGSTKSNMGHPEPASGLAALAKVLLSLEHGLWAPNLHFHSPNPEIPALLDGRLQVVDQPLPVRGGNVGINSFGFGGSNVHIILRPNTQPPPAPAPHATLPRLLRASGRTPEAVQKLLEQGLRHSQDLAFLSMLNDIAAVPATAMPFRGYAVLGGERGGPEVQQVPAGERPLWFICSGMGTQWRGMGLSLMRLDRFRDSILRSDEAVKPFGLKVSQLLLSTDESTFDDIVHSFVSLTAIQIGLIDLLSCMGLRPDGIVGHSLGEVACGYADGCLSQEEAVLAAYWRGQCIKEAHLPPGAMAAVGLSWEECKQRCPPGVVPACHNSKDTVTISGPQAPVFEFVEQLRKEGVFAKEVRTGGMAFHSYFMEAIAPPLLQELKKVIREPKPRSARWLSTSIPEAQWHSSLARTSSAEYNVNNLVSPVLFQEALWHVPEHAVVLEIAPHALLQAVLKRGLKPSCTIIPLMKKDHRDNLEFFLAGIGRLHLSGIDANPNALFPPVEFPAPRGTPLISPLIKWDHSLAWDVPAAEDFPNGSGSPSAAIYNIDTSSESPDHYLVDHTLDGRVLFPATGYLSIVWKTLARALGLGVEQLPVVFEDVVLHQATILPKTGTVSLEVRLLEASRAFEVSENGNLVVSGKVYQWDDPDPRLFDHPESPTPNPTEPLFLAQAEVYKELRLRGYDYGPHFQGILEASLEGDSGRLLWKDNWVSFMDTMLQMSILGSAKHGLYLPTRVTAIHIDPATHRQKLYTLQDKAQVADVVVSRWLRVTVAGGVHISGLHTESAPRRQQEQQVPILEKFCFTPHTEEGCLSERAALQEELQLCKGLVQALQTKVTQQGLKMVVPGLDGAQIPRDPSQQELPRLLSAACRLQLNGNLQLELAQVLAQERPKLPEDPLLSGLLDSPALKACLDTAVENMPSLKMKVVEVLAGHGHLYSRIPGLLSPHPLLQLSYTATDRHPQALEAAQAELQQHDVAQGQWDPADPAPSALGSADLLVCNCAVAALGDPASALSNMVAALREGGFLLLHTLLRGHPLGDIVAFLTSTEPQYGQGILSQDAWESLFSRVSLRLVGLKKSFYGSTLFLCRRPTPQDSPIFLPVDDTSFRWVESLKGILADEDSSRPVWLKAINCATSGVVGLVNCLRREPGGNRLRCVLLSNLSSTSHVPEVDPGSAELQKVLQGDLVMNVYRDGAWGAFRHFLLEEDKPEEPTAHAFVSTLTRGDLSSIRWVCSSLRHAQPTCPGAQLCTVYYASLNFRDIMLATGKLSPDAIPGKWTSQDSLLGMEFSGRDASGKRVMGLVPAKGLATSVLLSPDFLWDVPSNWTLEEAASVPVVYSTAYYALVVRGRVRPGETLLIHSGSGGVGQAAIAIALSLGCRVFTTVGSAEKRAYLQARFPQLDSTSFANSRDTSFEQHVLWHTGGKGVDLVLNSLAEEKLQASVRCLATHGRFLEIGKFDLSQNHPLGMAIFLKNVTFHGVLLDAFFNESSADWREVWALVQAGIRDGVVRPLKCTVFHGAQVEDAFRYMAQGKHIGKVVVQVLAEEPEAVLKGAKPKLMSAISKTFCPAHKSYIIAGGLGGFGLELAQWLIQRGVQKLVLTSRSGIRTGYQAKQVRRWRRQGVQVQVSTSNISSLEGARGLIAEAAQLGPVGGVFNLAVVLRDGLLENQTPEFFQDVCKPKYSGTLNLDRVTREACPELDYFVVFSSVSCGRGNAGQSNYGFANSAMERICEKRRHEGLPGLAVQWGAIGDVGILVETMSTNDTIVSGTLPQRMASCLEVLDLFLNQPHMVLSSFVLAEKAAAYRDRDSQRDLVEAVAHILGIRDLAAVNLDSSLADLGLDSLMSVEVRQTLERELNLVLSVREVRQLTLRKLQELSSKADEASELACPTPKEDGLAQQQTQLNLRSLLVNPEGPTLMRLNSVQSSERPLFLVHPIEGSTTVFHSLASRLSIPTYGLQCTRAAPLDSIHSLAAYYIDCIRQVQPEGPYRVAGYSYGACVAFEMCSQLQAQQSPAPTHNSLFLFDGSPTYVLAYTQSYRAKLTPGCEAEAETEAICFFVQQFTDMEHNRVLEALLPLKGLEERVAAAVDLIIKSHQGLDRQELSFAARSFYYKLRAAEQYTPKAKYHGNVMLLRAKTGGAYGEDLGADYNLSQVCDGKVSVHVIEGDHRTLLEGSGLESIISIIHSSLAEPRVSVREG
Put plainly: Human FAS enzyme assay (decrease in NADPH fluorescence). Conditions: % inhibition at a concentration of 100 micromolar. In kind it is biochemical. From the text:
The compounds of the present invention are Fatty Acid Synthase inhibitors. […] Human and Rat FAS Enzyme Assay.
Fatty acid synthase is an enzyme complex that harbours seven enzymatic activities catalysing the reductive synthesis of long chain fatty acids from acetyl CoA and malonyl CoA to palmitate. When acetyl CoA and malonyl CoA are forming palmitate NADPH is consumed forming NADP. Since NADPH is fluorescent but not NADP the reaction can be measured by analysing the decrease in fluorescence.
Compounds were added to a black 384 well plate (Matrix) in a volume of 5 μl consisting of 20% DMSO and 80% Tris buffer pH 7.5, at a top concentration of 1 mM. NADPH, 30 μl of 166.6 μM, formulated in assay buffer (0.1M Tris ph7.5, 0.1 mM EDTA, 1 mM glutathione, 0.05% BSA), was then added to all of the wells of the plate. Fatty acid synthase Human or rat enzyme (0.4 μg, produced in house), dissolved in 20 mM Tris/HCl pH 7.5, 5 mM BOG, 1 mM TCEP, 10% glycerol, 1 mM EDTA, 150 mM NaCl, was then added to the plate in a volume of […]. Enzyme was added to all but the last two columns of the plate, to which, 10 μl of assay buffer was added (0.1M Tris ph7.5, 0.1 mM EDTA, 1 mM glutathione, 0.05% BSA) to provide a no enzyme assay control. Following a 15-minute incubation period, at room temperature, the plates were read on an Envision plate reader using 340 nm excitation and 460 nm emission filters. This served as a time zero background read. Substrates (an equal mix of both malonyl and acetyl CoA) were then added to the plates in a total volume of 5 μl. The concentrations of malonyl and acetyl CoA in the mixture were 500 μM and 150 μM respectively. Both were prepared as 10 mM stock solutions in distilled water and were subsequently diluted to working concentrations in assay buffer. Plates were then incubated for a further 60 minutes, at room temperature, before being read again on the Envision reader using the same parameters as previously used. The data was analysed by subtracting the background time zero data from that generated following the final 60 minute incubate and the percent inhibition compared to the maximum and minimum assay controls was determined. Sigmoid curves were fitted using Origin 7.5 Client software and IC50 values were determined.
Compound `COC(=O)CCS(=O)(=O)Nc1cc(C(=O)N2CCC(c3ccc(C#N)cc3)CC2)ccc1C` [Example 144, Methyl 3-[[5-[4-(4-cyanophenyl)piperidine-1-carbonyl]-2-methyl-phenyl]sulfamoyl]propanoate] came in with an inhibition at 100 µM of 88%.
The same measure, in the same setting: to `Cc1ccc(C(=O)N2CCC(c3ccc(CO)cc3)CC2)cc1NS(C)(=O)=O` [Example 165, N-[5-[4-[4-(hydroxymethyl)phenyl]piperidine-1-carbonyl]-2-methylphenyl]methanesulfonamide] belongs 76%; to `Cc1ccc(NS(=O)(=O)C2CCS(=O)(=O)C2)cc1C(=O)N1CCC(c2ccc(C#N)cc2)CC1` (stereo not drawn) [Example 69, N-[3-[4-(4-cyanophenyl)piperidine-1-carbonyl]-4-methyl-phenyl]-1,1-dioxo-thiolane-3-sulfonamide], 82%.
Still for that read-out and setting: to `Cc1ccc(C(=O)N2CCC(c3ccc(C#N)cc3)CC2)cc1NS(=O)(=O)c1ccccc1` [Example 10, N-[5-[4-(4-cyanophenyl)piperidine-1-carbonyl]-2-methyl-phenyl]benzenesulfonamide] belongs 78%; to `Cc1ccc(C(=O)N2CCC(c3ccc(C#N)cc3)CC2)cc1NS(=O)(=O)CCCNCc1cccnc1` [Example 141, N-[5-[4-(4-cyanophenyl)piperidine-1-carbonyl]-2-methyl-phenyl]-3-(pyridin-3-ylmethylamino)propane-1-sulfonamide], 93%; to `Cc1ccc(C(=O)N2CCC(c3ccc(C#N)cc3)CC2)cc1NS(=O)(=O)C1CCN(S(C)(=O)=O)C1` (stereo not drawn) [Example 154, N-[5-[4-(4-cyanophenyl)piperidine-1-carbonyl]-2-methyl-phenyl]-1-methylsulfonyl-pyrrolidine-3-sulfonamide], 99%.
Still for that read-out and setting: to `Cc1ccc(C(=O)N2CCC(c3ccc(C#N)cc3)CC2)cc1NS(=O)(=O)CC1CCCCC1` [Example 15, N-[5-[4-(4-cyanophenyl)piperidine-1-carbonyl]-2-methyl-phenyl]-1-cyclohexyl-methanesulfonamide] belongs 93%; to `Cc1ccc(C(=O)N2CCC(c3ccc(C#N)cc3)CC2)cc1NS(=O)(=O)c1cccnc1` [Example 107, N-[5-[4-(4-cyanophenyl)piperidine-1-carbonyl]-2-methyl-phenyl]pyridine-3-sulfonamide], 92%; to `COC(=O)c1cccc(S(=O)(=O)Nc2cc(C(=O)N3CCC(c4ccc(C#N)cc4)CC3)ccc2C)c1` [Example 76, Methyl 3-[[5-[4-(4-cyanophenyl)piperidine-1-carbonyl]-2-methyl-phenyl]sulfamoyl]benzoate], 97%.
Regarding `C=CCS(=O)(=O)Nc1cc(C(=O)N2CCC(c3ccc(C#N)cc3)CC2)ccc1C` [Example 146, N-(5-(4-(4-cyanophenyl)piperidine-1-carbonyl)-2-methylphenyl)prop-2-ene-1-sulfonamide], at 100 µM the inhibition was 90%.
For `Cc1cc(C)c(C(=O)N2CCC(c3ccc(C#N)cc3)CC2)cc1NS(C)(=O)=O` [Example 28, N-[5-[4-(4-cyanophenyl)piperidine-1-carbonyl]-2,4-dimethyl-phenyl]methanesulfonamide], 100 µM produced 93% inhibition.
As for `Cc1ccc(C(=O)N2CCC(c3ccc(N(C)S(C)(=O)=O)cc3)CC2)cc1NS(C)(=O)=O` [Example 230, N-[2-methyl-5-[4-[4-(methyl-methylsulfonylamino)phenyl]piperidine-1-carbonyl]phenyl]methanesulfonamide], the inhibition at 100 µM worked out at 73.2%.
For the compound `COCCOc1ccc(C2CCN(C(=O)c3ccc(C)c(NS(C)(=O)=O)c3)CC2)cc1` [Example 219, N-[5-[4-[4-(2-methoxyethoxy)phenyl]piperidine-1-carbonyl]-2-methylphenyl]methane-sulfonamide], the inhibition at 100 µM came out at 87%.
Same read-out and setting: to `Cc1ccc(C(=O)N2CCC(c3ccc(C#N)cc3)CC2)cc1NS(=O)(=O)CCCCl` [Example 9, 3-chloro-N-[5-[4-(4-cyanophenyl)piperidine-1-carbonyl]-2-methyl-phenyl]propane-1-sulfonamide] belongs 95%; to `Cc1ccc(C(=O)N2CCC(c3ccc(C#N)cc3)CC2)cc1NS(=O)(=O)CC(F)(F)F` [Example 60, N-[5-[4-(4-cyanophenyl)piperidine-1-carbonyl]-2-methyl-phenyl]-2,2,2-trifluoro-ethanesulfonamide], 83%.
Regarding `Cc1ccc(NS(=O)(=O)C2CC2)cc1C(=O)N1CCC(c2ccc(C#N)cc2)CC1` [Example 40, N-[3-[4-(4-cyanophenyl)piperidine-1-carbonyl]-4-methyl-phenyl]cyclopropanesulfonamide], 100 µM produced 89% inhibition.
As to `Cc1ccc(C(=O)N2CCC(c3ccc(C#N)cc3)CC2)cc1NS(=O)(=O)CC(O)CN(C)C` (stereo not drawn) [Example 150, N-[5-[4-(4-cyanophenyl)piperidine-1-carbonyl]-2-methyl-phenyl]-3-dimethylamino-2-hydroxy-propane-1-sulfonamide], the inhibition at 100 µM worked out at 88%.

The assay is the same for the next values; noted with them: compounds excluded from the claims by proviso.
As for `CS(=O)(=O)Nc1cc(C(=O)N2CCC(c3ccc(C#N)cc3)CC2)ccc1OC(F)(F)F` [N-[5-[4-(4-cyanophenyl)piperidine-1-carbonyl]-2-(trifluoromethoxy)phenyl]methanesulfonamide], the “IC50s in the range of about 0.001 μM to about 30 μM” value is recorded as “do not have IC50s in the range of about 0.001 μM to about 30 μM”.
The same measure, in the same setting: to `Cc1ccc(C(=O)N2CCC(c3cccc(-c4ccccc4)c3)CC2)cc1NS(C)(=O)=O` [N-[2-methyl-5-[4-(3-phenylphenyl)piperidine-1-carbonyl]phenyl]methanesulfonamide] belongs “do not have IC50s in the range of about 0.001 μM to about 30 μM”; to `Cc1ccc(C(=O)N2CCC(c3ccc(C#CC(C)(C)N)cc3)CC2)cc1NS(C)(=O)=O` [N-[5-[4-[4-(3-amino-3-methylbut-1-ynyl)phenyl]piperidine-1-carbonyl]-2-methylphenyl]methanesulfonamide], “do not have IC50s in the range of about 0.001 μM to about 30 μM”; to `Cc1ccc(C(=O)N2CCC(c3ccc(-c4ncccn4)cc3)CC2)cc1NS(C)(=O)=O` [N-[2-methyl-5-[4-(4-pyrimidin-2-ylphenyl)piperidine-1-carbonyl]phenyl]methanesulfonamide], “do not have IC50s in the range of about 0.001 μM to about 30 μM”.
Same read-out and setting: to `COc1ccc(CNC(=O)c2ccccc2S(=O)(=O)Nc2cc(C(=O)N3CCC(c4ccc(C#N)cc4)CC3)ccc2C)c(OC)c1` [2-[[5-[4-(4-cyanophenyl)piperidine-1-carbonyl]-2-methylphenyl]sulfamoyl]-N-[(2,4-dimethoxyphenyl)methyl]benzamide] belongs “do not have IC50s in the range of about 0.001 μM to about 30 μM”; to `Cc1ccc(C(=O)N2CCC(c3ccc(C(=O)N(C)C)cc3)CC2)cc1NS(C)(=O)=O` [4-[1-(3-methanesulfonamido-4-methylbenzoyl)piperidin-4-yl]-N,N-dimethylbenzamide], “do not have IC50s in the range of about 0.001 μM to about 30 μM”.
Still for that read-out and setting: to `CS(=O)(=O)Cc1ccc(C(=O)N2CCC(c3ccc(C#N)cc3)CC2)cc1NS(C)(=O)=O` [N-[5-[4-(4-cyanophenyl)piperidine-1-carbonyl]-2-(methylsulfonylmethyl)phenyl]methanesulfonamide] belongs “do not have IC50s in the range of about 0.001 μM to about 30 μM”.

The values are drawn from US20090105305A1, “Therapeutic Agents - 550” (AstraZeneca AB, priority 2006, published 2009).
